# Assays:
# [1] = tested on: ginsenoside glycosidases from A. niger; experiment: Hydrolysis of ginsenosides with crude ginsenoside glycosidases from A. niger, products measured by TLC; type: biochemical, Aspergillus niger
# Method: Aspergillus niger FFCCDL-48 g was cultured in a medium containing 1% ginseng extracts and 3% wheat bran extracts at 30° C. for 54 hours. Cells were removed by centrifugation, after which (NH4)2SO4 powder was added to 2000 ml of the cell-free supernatant with stirring to 65% saturation. The solution was stored overnight at 4° C. and precipitated proteins were collected by centrifugation, resuspended in 80 ml of distilled water and dialyzed against 0.01M acetate buffer pH 5. Insolubles were removed by centrifugation, and the solution was adjusted to 200 ml with 0.01 M acetate buffer pH 5. The crude enzyme solution may be used to hydrolyze ginsenosides or to purify the enzymes.
# 100 mg each of ginsenosides Rb1, Rb2, Rc and Rd and 10 mg of ginsenoside Rg3 were dissolved in separate tubes containing 10 ml of 0.01M acetate buffer pH 5. 10 ml of the crude enzyme solution obtained in 1.1 was added to each tube and allowed to react at 30° C. for 18 hours. Then 10 ml of n-butanol was added to stop the reactions. The products were measured by thin layer chromatography (TLC) (Silica gel 60-F254, Merck; chloroform:methanol:water 70:30:5).
# Experiments were carried out to explore the effects of temperature, pH, metal ions and reaction time on the enzyme reaction, in order to further characterize the enzymes.
# 100 mg of ginsenoside Rb1 was used in a reaction under the conditions as described in 1.2 and the effect of temperature was shown in Table 2.
# [2] = tested on: Cellobiose-producing enzyme from Clostridium; experiment: Comparison: hydrolysis of ginsenosides with cellobiose-producing enzyme; type: biochemical, Clostridium thermocopiriae; conditions: substrate 0.5%, pH 5.0, 30° C., 18 hours
# Excerpt: (§1) To observe the differences between the ginsenoside glycosidases of the invention and known exo-cellulases, the ginsenoside glycosidases of the invention were compared with cellulose β-glucosidase (E.C. 3.2.1.21) in two reactions with 0.5% ginsenosides Rb1 or Rd as substrate.
# An exo-cellulase from Clostridium thermocopiriae (cellobiose-producing enzyme) cleaves cellodextrin to give cellobiose, but cannot hydrolyze diglucosidic bond at C-3 of ginsenoside Rd. So it is completely different from ginsenoside glycosidase III. Therefore, the ginsenoside glycosidases of the invention are enzymes different from known cellulose β-glucosidases and cellobiose-producing enzymes.
# [3] = tested on: ginsenoside glycosidase I; experiment: Hydrolysis of ginsenosides with Fraction 36 (ginsenoside glycosidase I); type: biochemical, Aspergillus niger; conditions: pH 5.0, 30° C.
# Method: 10 ml of the enzyme solution obtained in 1.1 was subjected to a DEAE-Cellulose DE-52 column (Pharamcia, 1.5×6.7 cm) to absorb the enzyme protein. The column was then eluted with a NaCl gradient (0.06, 0.12, 0.18, 0.24, 0.3, 0.4, 0.5 and 0.6M).
# Fractions 36 and 54 from the DEAE-Cellulose column appeared as one dot on a SDS-polyacrylamide gel, representing the purified enzymes.
# Fraction 36 which was eluted with 0.12 M NaCl from the DEAE-Cellulose column was lyophilized and appeared as a single dot with a molecular weight of 51,000 Daltons when running on a SDS-polyacrylamide gel.
# as §1
# [4] = Rb1 0.5%, pH 5.0, 30° C., 18 hours
# [5] = Rb1 0.5%, pH 6.0, 30° C., 18 hours
# [6] = Rb1 0.5%, pH 7.0, 30° C., 18 hours
# [7] = Rb1 0.5%, pH 8.0, 30° C., 18 hours
# [8] = Rb1 0.5%, reaction time 1 hours, pH 5, 30° C.
# [9] = Rb1 0.5%, reaction time 4 hours, pH 5, 30° C.
# [10] = Rb1 0.5%, reaction time 8 hours, pH 5, 30° C.
# [11] = Rb1 0.5%, reaction time 12 hours, pH 5, 30° C.
# [12] = Rb1 0.5%, reaction time 18 hours, pH 5, 30° C.
# [13] = Rb1 0.5%, reaction time 24 hours, pH 5, 30° C.
# [14] = Rb1 0.5%, reaction time 30 hours, pH 5, 30° C.
# [15] = Rb1 0.5%, reaction time 36 hours, pH 5, 30° C.
# [16] = Fraction 36, substrates Rb1, Rb2, Rc, Rd 0.5%, Rg3, F2, Rh2, C—K, Rg2 0.05%
# [17] = Table 8, ginsenoside glycosidase I, substrate 0.5%, 18 hours
compound,measurement,setting,value
"CC(C)=CCC[C@](C)(O[C@@H]1O[C@H](CO[C@@H]2O[C@H](CO)[C@@H](O)[C@H](O)[C@H]2O)[C@@H](O)[C@H](O)[C@H]1O)[C@H]1CC[C@]2(C)[C@@H]1[C@H](O)C[C@@H]1[C@@]3(C)CC[C@H](O[C@@H]4O[C@H](CO)[C@@H](O)[C@H](O)[C@H]4O[C@@H]4O[C@H](CO)[C@@H](O)[C@H](O)[C@H]4O)C(C)(C)[C@@H]3CC[C@]12C [Rb1, ginsenoside Rb1]",Percentage of F2 in the reaction product,[1]; [4],63%
same,Percentage of Rd in the reaction product,[1]; [4],10%
same,Percentage of Rh2 in the reaction product,[1]; [4],5%
same,Percentage of aglycone in the reaction product,[1]; [4],5%
same,Percentage of C—K in the reaction product,[1]; [5],21%
same,Percentage of F2 in the reaction product,[1]; [5],56%
same,Percentage of Rd in the reaction product,[1]; [5],15%
same,Percentage of Rh2 in the reaction product,[1]; [5],4%
same,Percentage of aglycone in the reaction product,[1]; [5],4%
same,Percentage of C—K in the reaction product,[1]; [6],6%
same,Percentage of F2 in the reaction product,[1]; [6],41%
same,Percentage of Rb1 in the reaction product,[1]; [6],10%
same,Percentage of Rd in the reaction product,[1]; [6],41%
same,Percentage of Rg3 in the reaction product,[1]; [6],2%
same,Percentage of Rh2 in the reaction product,[1]; [6],2%
same,Percentage of aglycone in the reaction product,[1]; [6],2%
same,Percentage of C—K in the reaction product,[1]; [7],6%
same,Percentage of F2 in the reaction product,[1]; [7],36%
same,Percentage of Rb1 in the reaction product,[1]; [7],20%
same,Percentage of Rd in the reaction product,[1]; [7],45%
same,Percentage of Rg3 in the reaction product,[1]; [7],3%
same,Percentage of Rb1 in the reaction product,[1]; [8],38%
same,Percentage of Rd in the reaction product,[1]; [8],62%
same,Percentage of F2 in the reaction product,[1]; [9],10%
same,Percentage of Rb1 in the reaction product,[1]; [9],12%
same,Percentage of Rd in the reaction product,[1]; [9],72%
same,Percentage of C—K in the reaction product,[1]; [10],2%
same,Percentage of F2 in the reaction product,[1]; [10],38%
same,Percentage of Rb1 in the reaction product,[1]; [10],8%
same,Percentage of Rd in the reaction product,[1]; [10],51%
same,Percentage of C—K in the reaction product,[1]; [11],6%
same,Percentage of F2 in the reaction product,[1]; [11],54%
same,Percentage of Rb1 in the reaction product,[1]; [11],6%
same,Percentage of Rd in the reaction product,[1]; [11],30%
same,Percentage of Rh2 in the reaction product,[1]; [11],2%
same,Percentage of aglycone in the reaction product,[1]; [11],2%
same,Percentage of C—K in the reaction product,[1]; [12],16%
same,Percentage of F2 in the reaction product,[1]; [12],63%
same,Percentage of Rd in the reaction product,[1]; [12],10%
same,Percentage of Rh2 in the reaction product,[1]; [12],5%
same,Percentage of aglycone in the reaction product,[1]; [12],5%
same,Percentage of C—K in the reaction product,[1]; [13],24%
same,Percentage of F2 in the reaction product,[1]; [13],60%
same,Percentage of Rd in the reaction product,[1]; [13],8%
same,Percentage of Rh2 in the reaction product,[1]; [13],4%
same,Percentage of aglycone in the reaction product,[1]; [13],4%
same,Percentage of C—K in the reaction product,[1]; [14],44%
same,Percentage of F2 in the reaction product,[1]; [14],40%
same,Percentage of Rd in the reaction product,[1]; [14],5%
same,Percentage of Rg3 in the reaction product,[1]; [14],2%
same,Percentage of Rh2 in the reaction product,[1]; [14],6%
same,Percentage of aglycone in the reaction product,[1]; [14],3%
same,Percentage of C—K in the reaction product,[1]; [15],52%
same,Percentage of F2 in the reaction product,[1]; [15],30%
same,Percentage of Rd in the reaction product,[1]; [15],2%
same,Percentage of Rg3 in the reaction product,[1]; [15],3%
same,Percentage of Rh2 in the reaction product,[1]; [15],7%
same,Percentage of aglycone in the reaction product,[1]; [15],6%
same,Percentage of C—K in the reaction product,"[1]; pH 5, 30° C., 18 hours",16%
same,Percentage of F2 in the reaction product,"[1]; pH 5, 30° C., 18 hours",63%
same,Percentage of Rb1 in the reaction product,"[1]; pH 5, 30° C., 18 hours",1%
same,Percentage of Rd in the reaction product,"[1]; pH 5, 30° C., 18 hours",10%
same,Percentage of Rh2 in the reaction product,"[1]; pH 5, 30° C., 18 hours",5%
same,Percentage of aglycone in the reaction product,"[1]; pH 5, 30° C., 18 hours",5%
same,Percentage of Rb1 in the reaction product,[2],100%
same,Percentage of C—K in the reaction product,[3]; [16],49%
same,Percentage of F2 in the reaction product,[3]; [16],38%
same,Percentage of Rd in the reaction product,[3]; [16],8%
same,Percentage of Rh2 in the reaction product,[3]; [16],1%
same,Percentage of aglycone in the reaction product,[3]; [16],2%
same,Percentage of C—K in the reaction product,[3]; [17],49%
same,Percentage of F2 in the reaction product,[3]; [17],38%
same,Percentage of Rd in the reaction product,[3]; [17],8%
same,Percentage of Rh2 in the reaction product,[3]; [17],1%
same,Percentage of aglycone in the reaction product,[3]; [17],2%
